The subject of the test is spontaneously hypertensive rats (SHR). Put plainly: Antihypertensive activity test: blood pressure and heart rate of spontaneously hypertensive rats (SHR). The settings on record: 200 mg/kg. It is filed as in vivo, rat. The method, then: Tested Drugs: Compounds of the Invention. The dosage of all compound was uniformly set to 200 mg/kg.
In the test, changes in the blood pressure before and after the administration were detected, and compared with the basic value, a reduction of SBP ≥20 mmHg after administration was judged as effective antihypertensive effects; and at the same time, changes in the heart rate before and after the administration were detected.
Heart rate was expressed as mean±standard deviation (x±s). The changes of heart rate before and after the administration were compared by using Two-sample equal variance paired t test, and P<0.05 was regarded as the standard of statistically significant difference.

The mark [1] stands for this setting: after administration (6 h M ± SD), n = 8.
[2] abbreviates: before administration, M ± SD, n = 8.

The structures appear in SMILES notation.

For the compound `CCc1cccc([C@@H](O)CO)c1` [Compound 1-1], the “SBP Difference before and after administration, 0 h” value (0 h) is listed as 0 mmHg. Moreover, the “SBP Difference before and after administration, 1 h” value (1 h) is 14 mmHg. Further, the “SHR blood pressure (SBP), time after administration 1 h” value (1 h, n = 8) stood at 176 ± 12.4 mmHg. For the same compound, the “SBP Difference before and after administration, 2 h” value (2 h) is 22 mmHg. Where the note is “2 h, n = 8”, the “SHR blood pressure (SBP), time after administration 2 h” value turned out to be 168 ± 12.0 mmHg. The “SBP Difference before and after administration, 3 h” value (3 h) is given as 29 mmHg. The “SHR blood pressure (SBP), time after administration 3 h” value (3 h, n = 8) was determined as 161 ± 13.1 mmHg. For the same compound, the “SBP Difference before and after administration, 4 h” value (4 h) amounted to 24 mmHg. Besides, the “SHR blood pressure (SBP), time after administration 4 h” value (4 h, n = 8) is on record as 166 ± 11.4 mmHg. For the same compound, the “SBP Difference before and after administration, 5 h” value (5 h) was found to be 20 mmHg. In addition, for the setting “5 h, n = 8”, the “SHR blood pressure (SBP), time after administration 5 h” value came out at 170 ± 11.9 mmHg. Also, the “SBP Difference before and after administration, 6 h” value (6 h) was determined as 14 mmHg. In addition, the “SHR blood pressure (SBP), time after administration 6 h” value (6 h, n = 8) was 186 ± 10.1 mmHg.
Regarding `CCc1cccc([C@H](O)CO)c1` [Compound 1-2], the “SBP Difference before and after administration, 1 h” value (1 h) is recorded as 10 mmHg. For the same compound, the “SHR blood pressure (SBP), time after administration 1 h” value (1 h, n = 8) is 176 ± 6.39 mmHg. Moreover, under “2 h”, the “SBP Difference before and after administration, 2 h” value was 22 mmHg. The “SHR blood pressure (SBP), time after administration 2 h” value (2 h, n = 8) turned out to be 164 ± 4.50 mmHg. Further, the “SBP Difference before and after administration, 3 h” value (3 h) amounted to 25 mmHg. Moreover, the “SHR blood pressure (SBP), time after administration 3 h” value (3 h, n = 8) was 161 ± 9.15 mmHg. The “SBP Difference before and after administration, 4 h” value (4 h) is reported as 23 mmHg. Further, for the setting “4 h, n = 8”, the “SHR blood pressure (SBP), time after administration 4 h” value is 163 ± 13.7 mmHg. Also, for the setting “5 h”, the “SBP Difference before and after administration, 5 h” value was determined as 12 mmHg. Further, the “SHR blood pressure (SBP), time after administration 5 h” value (5 h, n = 8) was 174 ± 15.9 mmHg. In addition, the “SBP Difference before and after administration, 6 h” value (6 h) turned out to be 8 mmHg. Besides, the “SHR blood pressure (SBP), time after administration 6 h” value (6 h, n = 8) came out at 178 ± 8.78 mmHg.
Consider `[2H]OCC(O[2H])c1cccc(CC)c1` (centres unmarked) [Compound 1-3], for which the “SBP Difference before and after administration, 1 h” value (1 h) was 18 mmHg. In addition, the “SHR blood pressure (SBP), time after administration 1 h” value (1 h, n = 8) came to 168 ± 6.39 mmHg. For the setting “2 h”, the “SBP Difference before and after administration, 2 h” value amounted to 21 mmHg. In addition, the “SHR blood pressure (SBP), time after administration 2 h” value (2 h, n = 8) was found to be 165 ± 4.50 mmHg. Also, the “SBP Difference before and after administration, 3 h” value (3 h) came out at 23 mmHg. The “SHR blood pressure (SBP), time after administration 3 h” value (3 h, n = 8) worked out at 163 ± 9.15 mmHg. Moreover, the “SBP Difference before and after administration, 4 h” value (4 h) was determined as 23 mmHg. In addition, under “4 h, n = 8”, the “SHR blood pressure (SBP), time after administration 4 h” value is recorded as 163 ± 13.7 mmHg. Also, the “SBP Difference before and after administration, 5 h” value (5 h) is 22 mmHg. Also, the “SHR blood pressure (SBP), time after administration 5 h” value (5 h, n = 8) turned out to be 164 ± 15.9 mmHg. In addition, the “SBP Difference before and after administration, 6 h” value (6 h) amounted to 18 mmHg. Further, the “SHR blood pressure (SBP), time after administration 6 h” value (6 h, n = 8) is 168 ± 8.78 mmHg.
Regarding `OCC(O)c1ccccc1` (centres unmarked) [Compound 2], the “SBP Difference before and after administration, 1 h” value (1 h) was found to be 16 mmHg. Also, the “SHR blood pressure (SBP), time after administration 1 h” value (1 h, n = 8) stood at 169 ± 6.39 mmHg. Also, the “SBP Difference before and after administration, 2 h” value (2 h) stood at 18 mmHg. Besides, the “SHR blood pressure (SBP), time after administration 2 h” value (2 h, n = 8) amounted to 167 ± 4.50 mmHg. Under “3 h”, the “SBP Difference before and after administration, 3 h” value stood at 19 mmHg. Moreover, the “SHR blood pressure (SBP), time after administration 3 h” value (3 h, n = 8) worked out at 166 ± 9.15 mmHg. In addition, the “SBP Difference before and after administration, 4 h” value (4 h) is recorded as 19 mmHg. Also, the “SHR blood pressure (SBP), time after administration 4 h” value (4 h, n = 8) stood at 166 ± 13.7 mmHg. Moreover, the “SBP Difference before and after administration, 5 h” value (5 h) is reported as 20 mmHg. In addition, the “SHR blood pressure (SBP), time after administration 5 h” value (5 h, n = 8) is 165 ± 15.3 mmHg. The “SBP Difference before and after administration, 6 h” value (6 h) was determined as 15 mmHg. The “SHR blood pressure (SBP), time after administration 6 h” value (6 h, n = 8) came out at 170 ± 8.77 mmHg.
For `Cc1cccc(C(O)CO)c1` (centres unmarked) [Compound 3], for the setting “1 h”, the “SBP Difference before and after administration, 1 h” value is reported as 18 mmHg. The “SHR blood pressure (SBP), time after administration 1 h” value (1 h, n = 8) was 180 ± 11.6 mmHg. For the setting “2 h”, the “SBP Difference before and after administration, 2 h” value came out at 10 mmHg. Besides, the “SHR blood pressure (SBP), time after administration 2 h” value (2 h, n = 8) is given as 178 ± 10.9 mmHg. Besides, the “SBP Difference before and after administration, 3 h” value (3 h) was 11 mmHg. Moreover, the “SHR blood pressure (SBP), time after administration 3 h” value (3 h, n = 8) is recorded as 177 ± 13.9 mmHg. Besides, the “SBP Difference before and after administration, 4 h” value (4 h) was found to be 8 mmHg. For the same compound, the “SHR blood pressure (SBP), time after administration 4 h” value (4 h, n = 8) worked out at 180 ± 15.80 mmHg. In addition, the “SBP Difference before and after administration, 5 h” value (5 h) is given as 2 mmHg. For the same compound, the “SHR blood pressure (SBP), time after administration 5 h” value (5 h, n = 8) is 186 ± 16.0 mmHg. Moreover, the “SBP Difference before and after administration, 6 h” value (6 h) is on record as 2 mmHg. The “SHR blood pressure (SBP), time after administration 6 h” value (6 h, n = 8) stood at 186 ± 17.7 mmHg.
`CCc1ccc(C(O)CO)cc1` (centres unmarked) [Compound 4]: the “SHR heart rate, time after administration 0 h” value (0 h, N = 8) worked out at 345 ± 42.2 beat/min. For the setting “1 h”, the “Heart rate Difference before and after administration, 1 h” value is reported as 2 beat/min; the “SBP Difference before and after administration, 1 h” value stood at 3 mmHg. Moreover, the “SHR heart rate, time after administration 1 h” value (1 h, N = 8) worked out at 347 ± 42.6 beat/min. Moreover, where the note is “1 h, n = 8”, the “SHR blood pressure (SBP), time after administration 1 h” value was determined as 182 ± 11.6 mmHg. Moreover, for the setting “2 h”, the “Heart rate Difference before and after administration, 2 h” value is recorded as 4 beat/min; the “SBP Difference before and after administration, 2 h” value is 7 mmHg. Moreover, where the note is “2 h, N = 8”, the “SHR heart rate, time after administration 2 h” value was determined as 349 ± 49.7 beat/min. The “SHR blood pressure (SBP), time after administration 2 h” value (2 h, n = 8) was found to be 178 ± 10.8 mmHg. Moreover, where the note is “3 h”, the “Heart rate Difference before and after administration, 3 h” value is reported as 4 beat/min; the “SBP Difference before and after administration, 3 h” value stood at 8 mmHg. The “SHR heart rate, time after administration 3 h” value (3 h, N = 8) was 349 ± 48.3 beat/min. For the setting “3 h, n = 8”, the “SHR blood pressure (SBP), time after administration 3 h” value stood at 177 ± 10.9 mmHg. For the same compound, for the setting “4 h”, the “Heart rate Difference before and after administration, 4 h” value came out at 0 beat/min; the “SBP Difference before and after administration, 4 h” value is listed as 5 mmHg. For the same compound, the “SHR heart rate, time after administration 4 h” value (4 h, N = 8) stood at 345 ± 45.1 beat/min. Moreover, the “SHR blood pressure (SBP), time after administration 4 h” value (4 h, n = 8) is 180 ± 15.80 mmHg. Moreover, for the setting “5 h”, the “Heart rate Difference before and after administration, 5 h” value is given as −6 beat/min; the “SBP Difference before and after administration, 5 h” value is 1 mmHg. In addition, the “SHR heart rate, time after administration 5 h” value (5 h, N = 8) is recorded as 338 ± 39.7 beat/min. Besides, for the setting “5 h, n = 8”, the “SHR blood pressure (SBP), time after administration 5 h” value is 184 ± 16.0 mmHg. Under “6 h”, the “Heart rate Difference before and after administration, 6 h” value is reported as −4 beat/min; the “SBP Difference before and after administration, 6 h” value is on record as −1 mmHg. Besides, the “SHR heart rate, time after administration 6 h” value (6 h, N = 8) is given as 341 ± 46.9 beat/min. Further, under “6 h, n = 8”, the “SHR blood pressure (SBP), time after administration 6 h” value was 186 ± 17.7 mmHg. Under setting [1], the “Blood pressure (SBP, mmHg) After administration” value came to 181 ± 13.2 mmHg and the “Heart rate (beat/min) After administration” value is on record as 346 ± 43.4 beat/min. Besides, the “Heart rate Difference (beat/min)” value (after administration minus baseline (6 h)) amounted to 1 beat/min. Besides, where the note is “baseline minus after administration (6 h)”, the “Blood pressure Difference mmHg” value is 3 mmHg. Further, under setting [2], the “Blood pressure (SBP, mmHg) Baseline” value came out at 184 ± 14.7 mmHg and the “Heart rate (beat/min) Baseline” value came out at 345 ± 42.2 beat/min.
`OCC(O)c1cccc(Br)c1` (centres unmarked) [Compound 6]: under “1 h”, the “SBP Difference before and after administration, 1 h” value is 5 mmHg. The “SHR blood pressure (SBP), time after administration 1 h” value (1 h, n = 8) is on record as 184 ± 10.9 mmHg. Moreover, for the setting “2 h”, the “SBP Difference before and after administration, 2 h” value was determined as 9 mmHg. Also, the “SHR blood pressure (SBP), time after administration 2 h” value (2 h, n = 8) worked out at 180 ± 12.4 mmHg. The “SBP Difference before and after administration, 3 h” value (3 h) was 9 mmHg. Further, the “SHR blood pressure (SBP), time after administration 3 h” value (3 h, n = 8) was 180 ± 7.80 mmHg. Also, the “SBP Difference before and after administration, 4 h” value (4 h) amounted to 6 mmHg. Also, the “SHR blood pressure (SBP), time after administration 4 h” value (4 h, n = 8) is 183 ± 6.56 mmHg. In addition, the “SBP Difference before and after administration, 5 h” value (5 h) is recorded as 7 mmHg. Moreover, the “SHR blood pressure (SBP), time after administration 5 h” value (5 h, n = 8) came to 182 ± 8.29 mmHg. For the same compound, the “SBP Difference before and after administration, 6 h” value (6 h) is recorded as 1 mmHg. Moreover, the “SHR blood pressure (SBP), time after administration 6 h” value (6 h, n = 8) came out at 188 ± 13.2 mmHg.

The values are drawn from US12180146B2, “Antihypertensive polyol compound and derivative thereof” (TAO PHARMACEUTICAL (SUZHOU) CO., LTD, priority 2020, dated 2024).
